Reference: paper PMC7504751, “Potential of 2-Chloro-N-(4-fluoro-3-nitrophenyl)acetamide Against Klebsiella pneumoniae and In Vitro Toxicity Analysis” (Molecules, 2020)
In brackets after ≈: the same amount, converted by molar mass. Entries after “also recorded” stand apart in the source; their conditions may differ. Where two headings read alike, the source gives them in different places. Blank lines part the entries; values can stand above or below the compound they belong to.

Tests used:
[1] = system: Candida albicans; set-up: method as in doi:10.4067/S0717-97072003000400005; details: cited from earlier work
[2] = system: K. pneumoniae strains; assay: Minimum inhibitory concentration (MIC), broth microdilution; assay type: cell-based, Klebsiella pneumoniae
Protocol: The clinical isolates strains of K. pneumoniae were used in this study belong to the MICOTECA of the Antibacterial and Antifungal Activity Research Laboratory of the Federal University of Paraíba, Brazil, which are: KP-25, KP-26, KP-56, KP-83, KP-87, KP-138, KP-143, KP-166, KP-173, KP-176, KP-260, and KP-326. The American Type Culture Collection strain ATCC-700603 was used as controls. For use in the assays, bacterial suspensions were prepared in 0.9% saline solution, from fresh cultures, and adjusted to the McFarland standard 0.5 scale.
To assess the antibacterial activity of substances A1 and A2, the minimum inhibitory concentration against K. pneumoniae strains was determined. The substances were solubilized in dimethyl sulfoxide (DMSO) at 5% and Tween-80 at 2%, to obtain emulsions in the concentrations necessary for use in the tests. The MIC determination was performed using the broth microdilution technique in a 96-well plate to obtain different concentrations of A1 and A2 [35]. In parallel, controls for sterility, cell viability, and interference of the vehicles used in the preparation of substance emulsions (DMSO and Tween-80) were also performed. MIC is defined as the lowest concentration capable of causing complete inhibition of bacterial growth after 24 h at 35 ± 2 °C.

[3] = system: oral mucosa cells; assay: Genotoxic effects on oral mucosa cells; assay type: cell-based, human; details: positive control, hydrogen peroxide 0.0005%
Protocol: The tests were performed according to the recommendations established by the Code of Ethics of the World Medical Association, after approval by the ethics committee of the Centro Universitário de Patos (number: 3621284). Blood samples (types A, B, and O) and smears of oral mucosa were donated by young, healthy adults. First, the oral mucosa cells were collected from the donors, which was done with a cyto-brush (smear collector) in the cheek area, and the material obtained was placed in 5 mL of 0.9% NaCl. As controls, cells treated with hydrogen peroxide −0.0005% (positive control) and untreated cells (negative control) were used. The cells were washed twice with saline and centrifuged for 10 min at 400× g and kept in saline. After the third wash, the cells were exposed (ex vivo) to A2 substance at 50, 100, 500, and 1000 µg/mL concentrations for 30 min. The material was centrifuged and the supernatant was discarded before smear preparation. The cells were homogenized in a vortex and placed on the slides at room temperature for drying for 15 min. Then, they were fixed with methanol: acetic acid (3:1) for 15 min and stained with 2% Giemsa.

SMILES: O=C(CCl)Nc1ccccc1O [2-chloro-N-(2-hydroxyphenyl) acetamide]
- C. albicans strains inhibited [1]: 96.6%

- melting point: 142 to 144 °C
- MIC ([2]; Klebsiella pneumoniae, ATCC700603, strain ATCC-700603, 24 h at 35 ± 2 °C, read-out: MIC): 1020 µg/mL (≈ 5.17 mM)
- MIC ([2]; Klebsiella pneumoniae, 100% of the K. pneumoniae strains used in this study, read-out: MIC): 1020 µg/mL (≈ 5.17 mM)
- MIC ([2]; Klebsiella pneumoniae, strain KP-138, 24 h at 35 ± 2 °C, read-out: MIC): 1020 µg/mL (≈ 5.17 mM)
- MIC ([2]; strain KP-25, 24 h at 35 ± 2 °C): 1024 µg/mL (≈ 5.17 mM)
- MIC ([2]; strain KP-26, 24 h at 35 ± 2 °C): 1024 µg/mL (≈ 5.17 mM)
- MIC ([2]; strain KP-56, 24 h at 35 ± 2 °C): 1024 µg/mL (≈ 5.17 mM)
- MIC ([2]; strain KP-83, 24 h at 35 ± 2 °C): 1024 µg/mL (≈ 5.17 mM)
- MIC ([2]; strain KP-87, 24 h at 35 ± 2 °C): 1024 µg/mL (≈ 5.17 mM)
- MIC ([2]; strain KP-143, 24 h at 35 ± 2 °C): 1024 µg/mL (≈ 5.17 mM)
- MIC ([2]; strain KP-166, 24 h at 35 ± 2 °C): 1024 µg/mL (≈ 5.17 mM)
- MIC ([2]; strain KP-173, 24 h at 35 ± 2 °C): 1024 µg/mL (≈ 5.17 mM)
- MIC ([2]; strain KP-176, 24 h at 35 ± 2 °C): 1024 µg/mL (≈ 5.17 mM)
- MIC ([2]; strain KP-260, 24 h at 35 ± 2 °C): 1024 µg/mL (≈ 5.17 mM)
- MIC ([2]; strain KP-326, 24 h at 35 ± 2 °C): 1024 µg/mL (≈ 5.17 mM)
SMILES: CC(=O)Nc1ccc(F)c([N+](=O)[O-])c1 [A1, N-(4-fluoro-3-nitrophenyl)acetamide]

SMILES: OO [PC-H2O2, hydrogen peroxide, reference compound]
- Binucleation [3]: 1.00%
- Karyolysis [3]: 7.00%
- Karyorrhexis [3]: 10.75%
- Micronucleus [3]: 6.50%
- Normal [3]: 77.75%

SMILES: CC(=O)Nc1ccccc1O [N-(2-hydroxyphenyl) acetamide]
- antimicrobial activity against Candida albicans [1]: did not have the ability to inhibit fungal growth; also recorded: absence of activity
